Test results taken from patent US7981893B2, “Heteroaryl compounds, compositions thereof, and methods of treatment therewith” (Signal Pharmaceuticals, LLC, priority 2006, dated 2011).

What was measured:
Type in all cases: biochemical
PKCθ = target: T1, PKCθ (Homo sapiens, UniProt Q04759); assay: PKCθ IMAP Assay; conditions: IMAP fluorescence polarization screening assay, 35 μM ATP
T1 construct: purchased Invitrogen
How it was run: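 IMAP fluorescence polarization with 0.5 nM PKCθ, 100 nM FAM-AKRRRLSSLRA, 35 μM ATP, 2.5% DMSO, pH 7.6 HEPES with phosphatidyl serine/diacylglycerol. Compound pre-incubated with enzyme 45 min; reaction 60 min, then binding beads ≥30 min before FP read.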

Syk = target: T2, Syk (Homo sapiens, UniProt P43405); assay: Syk HTRF Assay; conditions: HTRF screening assay
T2 construct: purchased Carna Biosciences 08-176
Protocol: 5 μl/well DMSO is added to Column 2 Wells A-O and 29.5 μl to well P2 of Greiner 384-well polypropylene plate. 20 μl/well DMSO is added to Columns 1 and 3-12.
25 mM compound solutions are prepared by the addition of 25 μl of 30 mM compound to Column 2 and 0.5 μl 30 mM reference control to well P2.
Serial dilution is then performed by the following steps: (i) compounds in Column 2 are mixed by pipetting 20 μl up and down 6×; (ii) 10 μl/well compounds in DMSO are transferred from one column to the next column for Columns 2-11; (iii) wells are mixed by pipetting 20 μl up and down 6×; (iv) tips washed 3×25 μl DMSO, 2×25 μl next DMSO.
The following buffers are prepared:
Dilution Buffer: 50 mM HEPES pH 7.6; 1 mM DTT; 10 mM MgCl2; 0.01% Triton X100; 0.01% BSA; 0.1 mM EDTA.
Enzyme Mix in Dilution Buffer: 8.621 ng/ml Syk (Carna Biosciences 08-176).
Start Mix in Dilution Buffer: 87.5 μM ATP; 80 nM Substrate Peptide (American Peptide Company 332722).
14.5 μl/well Enzyme Mix or Dilution Buffer (Background Controls) is added to Costar 384-well black plates.
Compound addition and mixture is performed by the following steps: (i) 0.5 μl/well DMSO/compounds in DMSO transferred from Greiner 384-well polypropylene plate to left half of assay plate containing 14.5 μl/well Enzyme Mix and Dilution Buffer; (ii) Mix by pipetting 10 μl up and down 4×; (iii) tips are washed 4×10 μl in DMSO, 2×20 μl in other DMSO; (iv) steps i-iii are repeated with transfer to right half of assay plate; (v) steps i-iv are repeated with each compound/assay plate until all plates are completed.
10 μl/well Start Mix is added and incubated at room temperature on shaker for 2 minutes (1 hour total reaction time).
Stop Solution in Dilution Buffer: 120 mM EDTA
Antibody Mix in Dilution Buffer: 4.86 μg/ml DyLight 647 Streptavidin (Pierce 21824); 1 μg/ml Lance Eu-Anti-Phosphotyrosine (PerkinElmer AD0069).
5 μl/well[…] is added and incubated at room temperature on shaker for 2 minutes.
[…] Antibody Mix is added and Incubated at room temperature on shaker for 2 minutes (4 hours to overnight total time).
Plates are read at 665 nm and 620 nm emission on Analyst GT protocol HTRF_SP_A or EnVision protocol Steve's TR-FRET.

mTOR = target: T3, mTOR (Homo sapiens, UniProt P42345); assay: mTOR HTR-FRET Assay; conditions: HTR-FRET screening assay, GST-p70S6 kinase fragment substrate
T3 construct: Dilute TOR fraction 1:14 in “Simple TOR Buffer”
Protocol: The following is an example of an assay that can be used to determine the mTOR inhibitory activity of a test compound. Reagents are prepared as follows:
“Simple TOR buffer” (used to dilute high glycerol TOR fraction): 10 mM Tris pH 7.4, 100 mM NaCl, 0.1% Tween-20, 1 mM DTT (from 1M stock frozen at −20° C. just prior to use). For convenience a large quantity of “Simple TOR buffer” w/o DTT can be stored at 4° C. It can be brought to room temperature and DTT added just prior to dilution of TOR fraction.
5×KB/5×Mn/5×ATP solution (used to dilute substrate GST-p70S6kin 81 a.a. just prior to use) (40 ml screen quantity shown):
Enzyme solution: Dilute TOR fraction 1:14 in “Simple TOR Buffer”. For current lot that is 640 μg/ml TOR fraction diluted 14× to yield 45.7 μg/ml TOR in buffer (i.e. 7.85 ml TOR pooled fraction+102.1 ml Simple TOR buffer=110 ml 14× diluted TOR fraction). Each Enzyme Lot must be QC'd prior to assay.
Substrate solution: This may be prepared just prior to assay if preferred. Dilute 5.3 mg/ml GST-p70S6kinase fragment stock to 3.5 μg/ml (97 nM) working stock in 5×KB/5×Mn/5×ATP solution (i.e. 26.41 μL (5.3 mg/ml) GST-p70S6+40 ml 5×KB/5×Mn/5×ATP=40 ml 3.5 μg/ml (97 nM)).
Assay Buffer (for dilution of Antibodies used in Antibody Detection Reagent):
Antibody Detection Reagent (this reagent should be made just prior to addition to Assay Plates):
Using PlateTrak program (Screen) or Matrix Pipettor (SAR), 19.5 μL of diluted TOR fraction is added to assay plate in all test, reference or positive control wells. 19.5 μL of “Simple TOR buffer” is added to all negative control wells. If treating multiple plates with the same compounds, can increase volume of enzyme to multiples of 19.5 μL in a tall 384 well polypropylene plate.
Using EP3, 0.5 μl of test, reference or control DMSO is added to each well with mixing. Plates are incubated for 30 minutes at room temperature.
Using PlateTrak program (Screen) or Matrix Pipettor (SAR) 5 μL of 5×KB/5×Mn/5×ATP/5× substrate solution is added to each well of the assay plate to start the reaction. The solutions are mixed well and incubated for 2 hours at room temperature.
Using PlateTrak program (Screen) or Matrix Pipettor (SAR) 5 μL of 60 mM EDTA is added to stop the reaction. The solutions are mixed well and allowed to sit for 15-20 minutes before the next step.
Using PlateTrak program (Screen) or Matrix Pipettor (SAR) 10 μl of Antibody Detection Reagent is added. The solutions are mixes well and incubated for 5 hours to O/N to allow antibodies to form complexes with phosphorylated substrate.
Plates are read on AnalystHT using protocol Multi-Method protocol.

T1 sequence (Q04759 whole entry): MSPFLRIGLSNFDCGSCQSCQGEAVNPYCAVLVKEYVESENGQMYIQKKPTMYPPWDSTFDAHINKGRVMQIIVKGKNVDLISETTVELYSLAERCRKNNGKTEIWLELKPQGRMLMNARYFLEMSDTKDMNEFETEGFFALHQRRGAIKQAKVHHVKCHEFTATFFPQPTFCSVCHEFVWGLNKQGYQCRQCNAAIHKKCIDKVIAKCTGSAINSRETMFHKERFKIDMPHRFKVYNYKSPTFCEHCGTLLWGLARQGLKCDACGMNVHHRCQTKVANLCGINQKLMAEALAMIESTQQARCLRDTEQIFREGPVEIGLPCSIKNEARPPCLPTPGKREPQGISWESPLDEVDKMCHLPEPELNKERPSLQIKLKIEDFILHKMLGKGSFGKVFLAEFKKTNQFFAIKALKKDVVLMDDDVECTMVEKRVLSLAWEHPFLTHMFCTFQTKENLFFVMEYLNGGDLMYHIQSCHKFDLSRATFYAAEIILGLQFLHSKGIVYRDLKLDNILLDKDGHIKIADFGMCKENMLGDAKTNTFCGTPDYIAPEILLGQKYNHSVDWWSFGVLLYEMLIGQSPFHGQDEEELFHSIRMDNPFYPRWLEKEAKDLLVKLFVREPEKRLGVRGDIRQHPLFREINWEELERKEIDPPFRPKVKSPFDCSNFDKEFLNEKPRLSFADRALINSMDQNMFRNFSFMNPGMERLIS

| IC50 (PKCθ) [µM] | IC50 (Syk) [µM] | IC50 (mTOR) [µM] | SMILES |
| --- | --- | --- | --- |
| 10.1 to 20 | 5.1 to 10 | – | COc1ccc(C(C)C)cc1-c1cnc2[nH]c(=O)n([C@@H](CO)C(C)C)c2n1 [Compound 13, (R)-1-(1-hydroxy-3-methylbutan-2-yl)-6-(5-isopropyl-2-methoxyphenyl)-1H-imidazo[4,5-b]pyrazin-2(3H)-one] |
| 0.1 to 5 | 0.1 to 5 | – | COc1ccc(C(C)C)cc1-c1cnc2[nH]c(=O)n([C@H](C)C(C)C)c2n1 [Compound 28, (R)-6-(5-isopropyl-2-methoxyphenyl)-1-(3-methylbutan-2-yl)-1H-imidazo[4,5-b]pyrazin-2(3H)-one] |
| 20.1 to 30 | 0.1 to 5 | – | COc1ccc(C(C)C)cc1-c1cnc2[nH]c(=O)n([C@@H](C)C(C)C)c2n1 [Compound 30, (S)-6-(5-isopropyl-2-methoxyphenyl)-1-(3-methylbutan-2-yl)-1H-imidazo[4,5-b]pyrazin-2(3H)-one] |
| 20.1 to 30 | > 30 | > 30 | CC(C)[C@@H](CO)n1c(=O)[nH]c2ncc(-c3cccc4ncccc34)nc21 [Compound 11, (S)-1-(1-hydroxy-3-methylbutan-2-yl)-6-(quinolin-5-yl)-1H-imidazo[4,5-b]pyrazin-2(3H)-one] |
| > 30 | > 30 | – | CC(C)[C@@H](CO)n1c(=O)[nH]c2ncc(-c3ccccc3)nc21 [Compound 1, (S)-1-(1-hydroxy-3-methylbutan-2-yl)-6-phenyl-1H-imidazo[4,5-b]pyrazin-2(3H)-one] |
| 0.1 to 5 | – | 5.1 to 10 | COc1cccc(C(C)n2c(=O)[nH]c3ncc(-c4cccc5ncccc45)nc32)c1 (stereo not drawn) [Compound 55, 1-(1-(3-methoxyphenyl)ethyl)-6-(quinolin-5-yl)-1H-imidazo[4,5-b]pyrazin-2(3H)-one] |
| 0.1 to 5 | 0.1 to 5 | – | COc1ccc(C(C)C)cc1-c1cnc2[nH]c(=O)n([C@H](CO)C(C)C)c2n1 [Compound 8, (S)-1-(1-hydroxy-3-methylbutan-2-yl)-6-(5-isopropyl-2-methoxyphenyl)-1H-imidazo[4,5-b]pyrazin-2(3H)-one] |
